Test results taken from patent publication EP4810508A1, “ARABINOSE DERIVATIVE COMPOUND, AND COMPOSITION COMPRISING SAME FOR PREVENTING OR TREATING DEGENERATIVE BRAIN DISEASES” (Digmbio. Inc., priority 2023, dated 2025).
Where two headings read alike, the source gives them in different places.

How the values were obtained:
[1] = system: HRE/Luc/HEK293 cells; experiment: HRE (Hypoxia Response Element) luciferase assay; assay type: cell-based, human; conditions: for fold induction at 10 µM / fold induction at 100 µM: Homo sapiens; for HRE assay: increase in HRE expression levels by the test substance relative to the vehicle in HRE/Luc/HEK293 cells; for HRE expression: concentration of 10 µM
Summary of the method: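 HRE-luciferase HEK293 cells in MEM/10% FBS pretreated with compound 6 h, then held under hypoxia (0.1% O2) 18 h; luminescence read after lysis. Scored as fold increase over vehicle, with twofold threshold at 100, 10 or 1 µM.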

[2] = system: male ICR mice; experiment: Scopolamine-induced cognitive impairment model: passive avoidance test (PAT); assay type: in vivo; conditions: for percent recovery of memory in passive avoidance test (normal group = 100, scopolamine control = 0) at 50 mg/kg: Mus musculus, po, 168 h, read-out: in vivo(effect) PAT (%); for in vivo PAT: time staying in bright room (step-through latency); for cognitive function recovery compared to normal animals, passive avoidance test (effect %): compounds 50 mg/kg, orally for 7 days, scopolamine 1 mg/kg intraperitoneal
From the text: (§1) A memory loss rodent animal model induced by scopolamine intraperitoneal administration is used, and an evaluation method for memory uses a Y-maze test and a passive avoidance test (PAT). Scopolamine is a representative experimental model showing an impairment of cognitive function similar to AD patients by blocking neurotransmitters when administered to an animal as an antagonist of a muscarinic acetylcholine receptor, and as a cognitive function evaluation technique, a Y-maze test and a passive avoidance experiment, which are general and representative methods, were used, and in order to objectify the efficacy levels of the compounds, a group administered with donepezil (Aricept, Eisa) as a positive control material was separately provided to compare the efficacy levels of the compounds.
(§2) In order to evaluate cognitive function, 5-week-old male ICR mice were used, the compounds to be evaluated were prepared at a dose of 50 mg/kg/ml and repeatedly orally administered at a predetermined time for 7 days, and the positive control material was carried out at 5 mg/kg/ml. After the last administration, after 30 minutes of intraperitoneal administration of 1 mg/kg/2 ml of scopolamine, a Y-maze test and a passive avoidance test, which are cognitive function evaluations, were performed.
In addition, the passive avoidance test was conducted using an avoidance learning box (Jeondo B&P, Korea, Seoul), and the avoidance learning box is divided into a dark room and a bright room, and when a laboratory animal is put into a bright room, the subject goes beyond the dark room. At the moment, an electric shock of 0.5 mA is applied for 5 seconds, and when the next day experimental animal is put back into a bright room, an electric shock in a dark room is memorized and stay in a bright room. In this case, a step-through latency is measured to evaluate memory. The efficacy of the compounds of the present invention against the normal group and the control group in the Y-maze test and the passive avoidance test was described in the following Table 3 (Scopolamine-induced cognitive impairment model result).

[3] = system: male ICR mice; experiment: Scopolamine-induced cognitive impairment model: Y-maze test; assay type: in vivo; conditions: for percent recovery of cognitive function (Y-maze) at 50 mg/kg: Mus musculus, po, 168 h; for in vivo Y-maze (%): spontaneous alternation
From the text: as §1, §2
The Y-maze test is a method for evaluating the ability to sequentially act as an experiment for measuring short-term memory. The measurement equipment is composed of three branches, each branch has a length of 42 cm, a width of 3 cm, and a height of 12 cm, and an angle at which three branches are folded is 120°. Experimental animals are put into each branch for 8 minutes, and the number of times of entering the branches to the tail of the experimental animal and the case of being sequentially received in each branch are scored (actual alternation). The alternation behavior is defined as entering not to overlap all three, and is calculated by the following equation. [formula]

[4] = HEK293, fold increase of HRE expression, hypoxic conditions (O2 0.1%) 18 hours, Table 2, read-out: HRE-increasing 10uM
[5] = HEK293, fold increase of HRE expression, hypoxic conditions (O2 0.1%) 18 hours, Table 2, read-out: HRE-increasing 100uM
[6] = scopolamine 1 mg/kg i.p., compounds 50 mg/kg oral for 7 days, donepezil 5 mg/kg (avg.)
[7] = read-out: in vivo(effect) Y-maze (%)
[8] = effect compared to normal group (100) and control group (0), compounds 50 mg/kg oral for 7 days, donepezil 5 mg/kg (avg.)
[9] = range over experiment sets, donepezil 5 mg/kg oral for 7 days, scopolamine 1 mg/kg i.p.
[10] = range over experiment sets, effect compared to normal and control group, donepezil 5 mg/kg
[11] = HEK293, 18 h, Table 2 (Examples 37-74, 52), read-out: HKt-increasing 10uM
[12] = HEK293, 18 h, Table 2 (Examples 37-74, 52), read-out: HKt-increasing 100uM
[13] = read-out: cognitive function recovery compared to normal animals, Y-maze experiment (effect %)

SMILES	fold induction at 10 µM [1, 4]	fold induction at 100 µM [1, 5]	HRE assay [1]	percent recovery of memory in passive avoidance test (normal group = 100, scopolamine control = 0) at 50 mg/kg [2] [%]	in vivo PAT [2, 6] [s]	percent recovery of cognitive function (Y-maze) at 50 mg/kg [3, 7] [%]	in vivo Y-maze (%) [3, 6] [%]	fold induction at 10 µM [1, 11]	fold induction at 100 µM [1, 12]	further results
O[C@@H]1[C@@H](O)[C@@H](Oc2ccc(Cc3ccc(F)cc3)cc2)OC[C@@H]1O [Example 13, (2R,3R,4S,5S)-2-(4-(4-fluorobenzyl)phenoxy)tetrahydro-2H-pyran-3,4,5-triol]	1.4	2.4	••	37	149	17	57	–	–	–
O[C@@H]1[C@@H](O)[C@@H](Oc2ccc(Cc3ccccc3)cc2)OC[C@@H]1O [Example 1, (2R,3R,4S,5S)-2-(4-benzylphenoxy)tetrahydro-2H-pyran-3,4,5-triol]	1.2	2.2	••	35	133	38	64	–	–	–
COc1cc2c(cc1OC)C(=O)C(CC1CCN(Cc3ccccc3)CC1)C2 (stereo not drawn) [donepezil, reference compound]	–	–	–	–	219	–	67	–	–	cognitive function recovery compared to normal animals, passive avoidance test (effect %) ([2]; donepezil 5 mg/kg): 94%; in vivo(effect) PAT (%) [2, 8]: 82%; in vivo PAT (sec), range [2, 9]: 173~251 sec; in vivo(effect) PAT (%), range [2, 10]: 59-95%; cognitive function recovery compared to normal animals, Y-maze experiment (effect %) ([3]; compounds 50 mg/kg, donepezil 5 mg/kg, orally for 7 days, scopolamine 1 mg/kg intraperitoneal): 35%; in vivo(effect) Y-maze (%) [3, 8]: 72%; in vivo Y-maze (%), range [3, 9]: 56-74%; in vivo(effect) Y-maze (%), range [3, 10]: 35-111%
CC(C)c1ccc(Oc2ccc(O[C@H]3OC[C@@H](O)[C@H](O)[C@H]3O)cc2)cc1 [Example 56, (2R,3R,4S,5R)-2-(4-(4-isopropylphenoxy)phenoxy)tetrahydro-2H-pyran-3,4,5-triol]	–	–	–	81	217.3	64	61.8	2.7	1.4	cognitive function recovery compared to normal animals, passive avoidance test (effect %) ([2]; donepezil 5 mg/kg): ≥ 50%; percent recovery of cognitive function (Y-maze) at 50 mg/kg [3, 13]: ≥ 50%
CC(C)c1ccc(Cc2ccc(O[C@H]3OC[C@H](O)[C@H](O)[C@H]3O)c(Cl)c2)cc1 [Example 8, (2R,3R,4S,5S)-2-(2-chloro-4-(4-isopropylbenzyl)phenoxy)tetrahydro-2H-pyran-3,4,5-triol]	4.2	–	•••	11	58	43	58	–	–	HRE expression [1]: more than threefold
O[C@@H]1[C@@H](O)[C@@H](Oc2ccc(Cc3ccc(Oc4ccccc4)cc3)cc2)OC[C@@H]1O [Example 9, (2R,3R,4S,5S)-2-(4-(4-phenoxybenzyl)phenoxy) tetrahydro-2H-pyran-3,4,5-triol]	1.2	< 1	•	32	127	9	57	–	–	–
CC(C)c1ccc(Cc2ccc(O[C@H]3OC[C@H](O)[C@H](O)[C@H]3O)cc2)cc1 [Example 7, (2R,3R,4S,5S)-2-(4-(4-isopropylbenzyl)phenoxy)tetrahydro-2H-pyran-3,4,5-triol]	3.5	< 1	•••	73	179	57	65	–	–	HRE expression [1]: more than threefold; cognitive function recovery compared to normal animals, passive avoidance test (effect %) ([2]; donepezil 5 mg/kg): ≥ 50%; percent recovery of cognitive function (Y-maze) at 50 mg/kg [3, 13]: ≥ 50%
COc1ccc(Cc2cccc(O[C@H]3OC[C@H](O)[C@H](O)[C@H]3O)c2)cc1 [Example 25, (2R,3R,4S,5S)-2-(3-(4-methoxybenzyl)phenoxy)tetrahydro-2H-pyran-3,4,5-triol]	–	–	–	1	42	65	62	–	–	percent recovery of cognitive function (Y-maze) at 50 mg/kg [3, 13]: ≥ 50%
COc1ccc(Cc2ccc(O[C@H]3OC[C@H](O)[C@H](O)[C@H]3OC)cc2)cc1 [Example 5, (3S,4S,5R,6R)-5-methoxy-6-(4-(4-methoxybenzyl)phenoxy)tetrahydro-2H-pyran-3,4-diol]	1.2	1.9	–	–	–	–	–	–	–	–
COc1ccc(Cc2ccc(S[C@H]3OC[C@H](O)[C@H](O)[C@H]3O)cc2)cc1 [Example 29, (2R,3R,4S,5S)-2-((4-(4-methoxybenzyl)phenyl)thio) tetrahydro-2H-pyran-3,4,5-thiol]	2.7	2.6	–	–	–	–	–	–	–	–
CC(C)c1ccc(Oc2ccc(O[C@H]3OC[C@H](O)[C@H](O)[C@H]3N)cc2)cc1 [Example 70, (3S,4R,5R,6R)-5-amino-6-(4-(4-isopropylphenoxy)phenoxy)tetrahydro-2H-pyran-3,4-diol]	–	–	–	–	–	–	–	1.2	3.1	–
CC(C)c1ccc(Oc2ccc(O[C@@H]3C[C@@H](O)[C@@H](O)CO3)cc2)cc1 [Example 66, (3S,4R,6R)-6-(4-(4-isopropylphenoxy)phenoxy)tetrahydro-2H-pyran-3,4-diol]	–	–	–	–	–	–	–	2.9	2.2	–
CO[C@@H]1[C@@H](O)[C@@H](Oc2ccc(Oc3ccc(C(C)C)cc3)cc2)OC[C@@H]1O [Example 60, (2R,3R,4S,5S)-2-(4-(4-isopropylphenoxy)phenoxy)-4-methoxytetrahydro-2H-pyran-3,5-diol]	–	–	–	–	–	–	–	2.3	1.6	–
COc1ccc(Cc2ccc(O[C@H]3OC[C@H](O)[C@H](O)[C@H]3O)cc2F)cc1 [Example 47, (2R,3R,4S,5S)-2-(3-fluoro-4-(4-methoxybenzyl)phenoxy)tetrahydro-2H-pyran-3,4,5-trio]	–	–	–	–	–	–	–	1	1.2	–
COc1ccc2oc(-c3ccc(O[C@H]4OC[C@H](O)[C@H](O)[C@H]4O)cc3)nc2c1 [Example 91, (2R,3R,4S,5S)-2-(4-(5-methoxybenzo[d]oxazol-2-yl)phenoxy)tetrahydro-2H-pyran-3,4,5-triol]	–	–	–	–	–	–	–	–	–	fold induction at 10 µM ([1]; HEK293, 18 h, Table 2 (Examples 75-109, 114), read-out: HRE-inceasing 10uM): 2.4; fold induction at 100 µM ([1]; HEK293, 18 h, Table 2 (Examples 75-109, 114), read-out: HRE-inceasing 100uM): 2.8
CN(C)c1ccc(Cc2ccc(O[C@@H]3OC[C@H](O)[C@H](O)[C@H]3O)cc2)cc1 [Example 12, (2S,3R,4S,5S)-2-(4-(4-(dimethylamino)benzyl)phenoxy) tetrahydro-2H-pyran 3,4,5-triol]	1.2	1.6	•	–	–	–	–	–	–	–
